Experimental data from paper PMC5855688, “BC-Box Motif-Mediated Neuronal Differentiation of Somatic Stem Cells” (International Journal of Molecular Sciences, 2018).
Entries after “also recorded” stand apart in the source; their conditions may differ.

Legend:
JAK2 [1] = test: Ubiquitination assay (IP anti-JAK2, IB anti-ubiquitin); format: biochemical, rat; conditions: incubation 4 h with ubiquitin, E1, E2 and peptide; vs no peptide or TAT, p < 0.001; Figure 5A
Description: We asked whether VHL(157–171) peptide-mediated neuronal differentiation was related to ubiquitination or not. […] After incubation for 4 h, cultured cells (1 × 10^6) were washed with ice-cold PBS and lysed in RIPA lysis buffer (Upstate, Charlottesville, VA, USA). The total protein was extracted from the cells, and the lysates were immunoprecipitated with anti-JAK2 antibody (Santa Cruz, San Diego, CA, USA) by using Protein A/G Sepharose (abcam, Cambridge, MA, USA). The immunoprecipitates were supplemented with 1 mM PMSF and the protease inhibitor cocktail. After 2 h, each sample was separated by SDS-PAGE and transferred electrophoretically to nitrocellulose filters. Western blots were probed with anti-ubiquitin antibody (Sigma-Aldrich) followed by horseradish peroxidase-conjugated secondary antibodies (Amersham). Protein bands were detected by using a chemical luminescence detection system (Amersham). Images were analyzed with LAS-1000 (Fujifilm).

[2] = tested on: skin-derived precursors (SKPs); test: Immunocytochemistry of neuronal markers in NDD peptide-treated cells; format: cell-based, rat (neonate Wistar); conditions: Figure 6B
Description: (§1) Rodent skin-derived precursor cells (SKPs), which can differentiate to neurons, were used. SKPs were previously isolated from the back dermis of neonate Wistar rats by the authors. These cells were cultured in growth medium composed of DMEM/F12 (1:1; Gibco, Grand Island, NY, USA) containing 2% B27 supplement (Gibco), 20 ng/mL epidermal growth factor (EGF; Upstate Biotechnology, Lake Placid, NY, USA), and 40 ng/mL bFGF (PeproTech EC Ltd., Rocky Hill, NJ, USA) in a humidified incubator at 37 °C with 5% CO2. The floating clusters of cultured cells were centrifuged and dissociated into a single-cell suspension by use of a Pasteur pipette with a flame-polished tip. These single cells were then re-suspended into at a concentration of 50,000 cells/mL for passage or experiments.
(§2) For neuronal differentiation, cells were dissociated into a single-cell suspension by use of a Pasteur pipette and re-suspended into a concentration of 50,000 cells/mL in DMEM/F12 without serum, neurotrophic factors or growth factors. Then, the cells were cultured on poly-L-lysine-coated dishes or cover glasses, and the synthesized peptides at concentrations from 1 to 5 μM were added to the culture medium and delivered into the cells. Three days or more later, the cells were used for morphological, immunocytochemical, immunohistochemical, electrophysiological and immunoprecipitation studies, as well as for Western blot analysis.
(§3) Cultured cells were fixed with 4% paraformaldehyde in PBS (Phosphate buffered saline) for 10 min at room temperature. Cells were incubated for 1 h at room temperature with primary antibodies. Antibodies against anti-MAP2 antibody (Sigma-Aldrich, St. Louis, MO, USA), anti-Neurofilment-H (NFH) antibody (Sigma-Aldrich), anti-NeuN antibody (Merk Millipore, Billerica, MA, USA), anti-GFAP antibody (DAKO, Santa Clara, CA, USA), anti-tyrosine hydroxylase (TH) antibody (Merk Millipore, Billerica, MA, USA), anti-choline acetyl transferase (ChAT) antibody (Abbiotec, San Diego, CA, USA), anti-glutamic acid decaboxylase (GAD) antibody (Enzo Life Sciences, Flamingdale, NY, USA), and anti-rhodopsin antibody (Santa Cruz, San Diego, CA, USA) were used. After incubation with primary antibody, the cells were incubated for 1 h with secondary antibody, either rhodamine-conjugated anti-mouse IgG (Sigma-Aldrich) or FITC-conjugated anti-rabbit IgG (Sigma-Aldrich). Nuclear counterstaining was done with DAPI (Molecular Probes, Eugene, OR, USA) or TO-PRO-3 (Molecular Probes), and observations were made with a fluorescence microscope system (FV300, Olympus, Tokyo, Japan). We counted the number of immuno-positive cells with a given antibody in 4 to 6 random non-overlapping visual fields (50–200 cells per field) in each experiment. At least 2 experiments were performed per condition. The degree of positivity was expressed as the rate of immuno-positive cells to the total number of nuclei stained with DAP1 or TO-PRO-3.

JAK2 [3] = test: Western blotting of JAK2 before and after peptide treatment; format: cell-based, rat; conditions: Western blot, Figure 5B, p < 0.01
[4] = tested on: skin-derived precursors (SKPs); test: Immunocytochemistry with anti-Neurofilament-H (NFH) antibody; format: cell-based, rat (neonate Wistar); conditions: immunocytochemistry, peptides at 1 to 5 μM; mean ± SEM; vs VHL(157–171): p < 0.01 for VHL(157–168), p < 0.005 for TAT
Description: as §1, §2
as §3, with “After incubation with primary antibody, the cells were incubated for 1 h with secondary antibody, either rhodamine-conjugated anti-mouse IgG (Sigma-Aldrich) or FITC-conjugated anti-rabbit IgG (Sigma-Aldrich).” left out, “At least 2 experiments were performed per condition.” left out

[5] = tested on: skin-derived precursors (SKPs); test: Western blot analysis of NFH protein; format: cell-based, rat (neonate Wistar); conditions: three days after treatment, Figure 3B, peptides at 1 to 5 μM, less than VHL(157–171): VHL(157–168) p < 0.01, TAT p < 0.001
Description: as §1, §2
Cultured cells were washed 3 times in cold PBS and then scraped into ice-cold PBS. After incubation on ice for 10 min, the cells were lysed with lysis buffer and centrifuged, after which the supernatants were collected. Each sample was separated by SDS-PAGE under reducing conditions and transferred electrophoretically to nitrocellulose filters. Non-specific binding of antibody was blocked by incubation with 5% donkey serum for 1 h. Western blots were probed with anti-MAP2 antibody, anti-NFH antibody, anti-ChAT antibody, anti-GAD antibody, anti-rhodopsin antibody, anti-TH antibody, and anti-elongin C antibody (Santa Cruz, San Diego, CA, USA) followed by horseradish peroxidase-conjugated secondary antibodies. Protein bands were detected by using a chemical luminescence detection system (ECL Plus Western Blotting Reagent Pack, Amersham, Hemel Hempstead, UK). Images were analyzed with LAS-1000 (Fujifilm, Tokyo, Japan), and the density of the bands was determined by using Image Gauge software (Fujifilm).

YARAAARQARATLKERCLQVVRSLVK [VHL(157–171), NDD in pVHL: BC-box motif plus five amino acids, conjugated with PTD]
JAK2 ubiquitination (JAK2 [1]): had activity as an E3 ubiquitin ligase and mediated JAK2 ubiqutination; also recorded: ubiquitination was significantly enhanced
Rate of GAD-positive (GABAnergic neuron-like) cells [2]: high rates of positive cells
Rate of TH-positive (dopaminergic neuron-like) cells [2]: high rates of positive cells
Rate of rhodopsin-positive cells [2]: high rates of positive cells
JAK2 degradation (JAK2 [3]): JAK2 and STAT3 were indeed degraded
Percentage of NFH-positive cells [4]: 60.4 ± 6.4%
NFH protein amount / band [5]: A distinct band for NFH; also recorded: significantly greater amount of anti-NFH protein
